Each block holds one compound with its values, some of them ahead of it.
What was measured:
[1] = Ertugliflozin-simvastatin drug-drug interaction study, plasma pharmacokinetics
[2] = Ertugliflozin-metformin drug-drug interaction study, plasma pharmacokinetics
[3] = Ertugliflozin-sitagliptin drug-drug interaction study, plasma pharmacokinetics; type: in vivo, human; conditions: for AUC(0-inf): po
[4] = Ertugliflozin-glimepiride drug-drug interaction study, plasma pharmacokinetics; type: in vivo, human; conditions: for GMR (90% CI) Cmax, analyte Glimepiride: Test Ertugliflozin + Glimepiride / Reference Glimepiride; for Tmax / AUC(0-t) / Cmax / half-life: oral
[5] = test system: OATP2B1; conditions: cited from earlier work
[6] = Ertugliflozin plasma PK summarized across all 4 DDI studies; type: in vivo; conditions: human, oral, 15 mg
[7] = test system: OATP1B3; conditions: cited from earlier work
[8] = test system: OAT1; conditions: cited from earlier work
[9] = Safety and tolerability across all 4 DDI studies; type: in vivo, human; conditions: single dose ertugliflozin 15 mg alone or in combination with sitagliptin, metformin, glimepiride, or simvastatin; healthy subjects
[10] = test system: P‐glycoprotein; conditions: at clinically relevant concentrations; cited from earlier work
[11] = test system: OCT1; conditions: cited from earlier work
[12] = test system: OATP1B1; conditions: cited from earlier work
[13] = test system: OAT3; conditions: in vitro studies; cited from earlier work
[14] = test system: OCT2; conditions: cited from earlier work
[15] = test system: OCT2; conditions: in vitro studies; cited from earlier work
[16] = test system: OAT3; conditions: cited from earlier work
[17] = cited from earlier work
[18] = test system: breast cancer resistance protein; conditions: at clinically relevant concentrations; cited from earlier work
[19] = simvastatin 40 mg coadministered with ertugliflozin 15 mg vs alone
[20] = both, human, plasma, oral, 15 mg

Increase in geometric mean AUCinf of simvastatin acid [1, 19]: 30%
Increase in geometric mean Cmax of simvastatin acid [1, 19]: 16%
Compound: CCC(C)(C)C(=O)O[C@H]1C[C@@H](C)C=C2C=C[C@H](C)[C@H](CC[C@@H](O)C[C@@H](O)CC(=O)O)[C@H]21 [Simvastatin Acid, simvastatin acid]

Increase in geometric mean AUCinf of simvastatin [1, 19]: 24%
Increase in geometric mean Cmax of simvastatin [1, 19]: 19%
Compound: CCC(C)(C)C(=O)O[C@H]1C[C@@H](C)C=C2C=C[C@H](C)[C@H](CC[C@@H]3C[C@@H](O)CC(=O)O3)[C@H]21 [Simvastatin, reference compound]

GMR (90% CI) Cmax, analyte Sitagliptin ([3]; Test Ertugliflozin + Sitagliptin / Reference Sitagliptin): 101.7 (91.7, 112.8) %
half-life ([3]; both, human, plasma, oral, 100 mg): 11 ± 2.89 h
AUC(0-t) ([3]; human, plasma, oral, 100 mg): 6.95 µM·h
Cmax ([3]; human, plasma, oral, 100 mg): 814 nM
AUC(0-inf) ([3]; human, plasma, 100 mg): 7.02 µM·h
Compound: N[C@@H](CC(=O)N1CCn2c(nnc2C(F)(F)F)C1)Cc1cc(F)c(F)cc1F [Sitagliptin, reference compound]

Second part, the compound before the results:

Compound: CN(C)C(=N)N=C(N)N [Metformin, reference compound]
GMR (90% CI) Cmax, analyte Metformin ([2]; Test Ertugliflozin + Metformin / Reference Metformin): 94.0 (82.9, 106.6) %
Metformin Tmax ([2]; plasma, Metformin 1000 mg alone (N = 18), median (range)): 2.00 (0.50–4.00) h

Compound: CCC1=C(C)CN(C(=O)NCCc2ccc(S(=O)(=O)NC(=O)N[C@H]3CC[C@H](C)CC3)cc2)C1=O [Glimepiride]
GMR (90% CI) Cmax, analyte Glimepiride [4]: 97.4 (71.1, 133.5) %
GMR (90% CI) Cmax, analyte Glimepiride ([4]; listed as glimepiride): 97.4%
Tmax ([4]; both, human, plasma): 1 to 12 h
AUC(0-t) ([4]; both, human, plasma, 1 mg): 218 ng·h/mL
Cmax ([4]; both, human, plasma, 1 mg): 34.4 ng/mL
half-life ([4]; both, human, plasma, 1 mg): 5.89 ± 2.79 h
AUC(0-inf) ([4]; both, human, plasma, po, 1 mg): 249 ng·h/mL
Intrasubject variability for Cmax of glimepiride ([4]; glimepiride 1 mg alone or with ertugliflozin 15 mg): 53.5%

Compound: CCOc1ccc(Cc2cc([C@]34OC[C@](CO)(O3)[C@@H](O)[C@H](O)[C@H]4O)ccc2Cl)cc1 [Ertugliflozin]
Substrate of OATP2B1 uptake transporter [5]: not a substrate
GMR (90% CI) Cmax, analyte Ertugliflozin ([1]; Test Ertugliflozin + Simvastatin / Reference Ertugliflozin): 105.2 (98.3, 112.5) %
AUC(0-t) ([1]; both, human, in vivo, 15 mg): 1380 ng·h/mL
Cmax ([1]; both, human, in vivo, 15 mg): 273 ng/mL
half-life ([1]; both, human, in vivo, 15 mg): 12.3 ± 3.07 h
Tmax [6]: 1 to 3 h
half-life [6]: 10.6 to 12.6 h
Substrate of OATP1B3 uptake transporter [7]: not a substrate
Substrate of OAT1 uptake transporter [8]: not a substrate
Tolerability [9]: well tolerated
Substrate of P‐glycoprotein efflux transporter [10]: substrate
Substrate of OCT1 uptake transporter [11]: not a substrate
Substrate of OATP1B1 uptake transporter [12]: not a substrate
GMR (90% CI) Cmax, analyte Ertugliflozin ([4]; Test Ertugliflozin + Glimepiride / Reference Ertugliflozin): 98.2 (92.2, 104.6) %
AUC(0-t) ([4]; both, human, plasma, 15 mg): 1230 ng·h/mL
Cmax ([4]; both, human, plasma, 15 mg): 146 ng/mL
Tmax ([4]; both, human, plasma, 15 mg): 2 h
half-life ([4]; both, human, plasma, 15 mg): 10.6 ± 2.44 h
Inhibition of OAT3 transporter [13]: weak inhibitor
Substrate of OCT2 uptake transporter [14]: not a substrate
GMR (90% CI) Cmax, analyte Ertugliflozin ([3]; Test Ertugliflozin + Sitagliptin / Reference Ertugliflozin): 98.2 (91.2, 105.7) %
AUC(0-t) ([3]; human, plasma, oral, 15 mg): 1430 ng·h/mL
Cmax ([3]; human, plasma, oral, 15 mg): 270 ng/mL
Tmax ([3]; human, plasma, oral, 15 mg): 1 h
AUC(0-inf) ([3]; human, plasma, 15 mg): 1460 ng·h/mL
GMR (90% CI) Cmax, analyte Ertugliflozin ([2]; Test Ertugliflozin + Metformin / Reference Ertugliflozin): 97.1 (88.8, 106.3) %
AUC(0-t) [2, 20]: 1380 ng·h/mL
Cmax [2, 20]: 279 ng/mL
Tmax [2, 20]: 1.02 h
half-life [2, 20]: 11.8 ± 2.34 h
Inhibition of OCT2 transporter [15]: weak inhibitor
Substrate of OAT3 uptake transporter [16]: not a substrate
Absolute (oral) bioavailability [17]: approximately 100%
Renal excretion of unchanged ertugliflozin ([17]; human, in vivo): 1.5 % of the administered dose
Contribution of glucuronidation to metabolic clearance ([17]; major metabolic pathway): 86%
Contribution of oxidative metabolism ([17]; minor pathway): 12%
Substrate of breast cancer resistance protein efflux transporter [18]: substrate
